Values after ≈ are worked out from the molar mass of the structure shown.
target: T1, α-glucosidase; assay: p-NPG hydrolysis, absorbance […] nm; assay type: biochemical; settings: p-NPG (50 μL of 3 mM), potassium phosphate pH 7.4, 37 °C, 1 h
T1 construct: gene MAL12; enzyme preparation

Row | SMILES | IC50 [mg/mL]
1 | O=c1cc(-c2ccc(O)cc2)oc2cc(O)cc(O)c12 [Apigenin] | 0.2508 (≈ 928 µM)
2 | Oc1cc(O)c2c(c1)O[C@H](c1ccc(O)c(O)c1)[C@H](O)C2 [Epicatechin] | > 5.0000
3 | COc1cc(-c2oc3cc(O)cc(O)c3c(=O)c2O)ccc1O [Isorhamnetin] | 0.1588 (≈ 502 µM)
4 | O=c1cc(-c2ccc(O)c(O)c2)oc2cc(O)cc(O)c12 [Luteolin] | 0.1904 (≈ 665 µM)

From publication PMC9783571, “Component Characterization, In Vitro Activities and Molecular Mechanism of Cydonia oblonga Mill. against Diabetic” (Pharmaceuticals, 2022)
